Reference: PMC12040169 (PLOS Biology, 2025)

Assay: in vitro
Details: human, hela cells, % viability

| Compound | viability at 28.5 h, 10 µM [%] | viability at 28.5 h, 10 µM (bulk resorufin, single well) [%] |
| --- | --- | --- |
| CCN(NC(=O)c1cc2cccc(OC)c2o1)c1ccc(C)cc1 [CBK161484] | 106 | – |
| CO[C@@H]1CO[C@H]2[C@@H]1OC[C@@H]2NC(=O)Nc1ccc(C(C)=O)cc1 [CBK289462] | 106 | – |
| C=CCOc1ccc(-c2nnn(CC(=O)O)n2)cc1 [CBK269772] | 87.8 | – |
| CCCSc1nc2cc(C(=O)OC)ccc2c(=O)n1CC1CCCO1 (stereo not drawn) [CBK306031] | 91 | – |
| Cc1ccc(C(=O)O)cc1NC(=O)c1ncn(-c2ccccc2)n1 [CBK269181] | 114 | – |
| CCCN1C[C@@H](O)C[C@H]2[C@H](O)[C@@H]1c1ccccc1N2C(=O)OC [CBK007809] | 91.8 | – |
| Cc1ccc(CNC(=O)c2ccc3c(c2)NC(=O)C(N2CCCC2)S3)cc1 (stereo not drawn) [CBK071788] | 84.6 | – |
| COc1ccccc1NC(=O)C(C)N1C(=O)c2ccccc2C1=O (stereo not drawn) [CBK261043] | 92 | – |
| CC(Sc1ccc(Br)c2cccc(C(=O)O)c12)C(=O)O (stereo not drawn) [CBK266226] | 97.4 | – |
| CN(C)CCNC(=O)C1CCCN(c2nc3c(-c4ccccc4)csc3c(=O)[nH]2)C1 (stereo not drawn) [CBK215501] | 88.3 | – |
| CCc1ccc(N(CC(=O)NCc2ccccn2)S(C)(=O)=O)cc1 [CBK265322] | 98.8 | – |
| CC(=O)N1CCc2c([nH]c3ccccc23)C12CCN(CCc1ccccc1)CC2 [CBK039757] | 78.8 | – |
| Cc1cccc(NC(c2ccc(C)s2)c2ccc3ccc(C)nc3c2O)n1 (stereo not drawn) [CBK266408] | 94.2 | – |
| N#Cc1ccccc1-c1ccc(CSc2cccs2)cc1 [CBK002638] | 90.5 | – |
| CN1CCN(CCOC(=O)N2CCN(c3cccc(C(F)(F)F)c3)CC2)CC1 [CBK115940C] | 103 | – |
| CCOc1oc2cc(O)ccc2c1C(=O)CSC1CCCCC1 [CBK022262] | 87.1 | – |
| Cc1ccc(C(O)CN2CCC(O)(c3ccccc3F)CC2)cc1 (stereo not drawn) [CBK283310] | 93.8 | – |
| Cc1ccc(OCC(=O)O/N=C(\N)Cc2ccc([N+](=O)[O-])cc2)c(C)c1 [CBK263102] | 101 | – |
| Cc1nc(CSc2nc3sc4c(c3c(=O)n2-c2ccccc2)CCCCC4)cs1 [CBK265706] | 110 | – |
| Cc1ccc(C)c(CSC2CCN(C3CCOCC3)C2=O)c1 (stereo not drawn) [CBK304865] | 103 | – |
| N#Cc1ccccc1Cn1cc(C(=O)C(N)=O)c2ccccc21 [CBK269862] | 93.5 | – |
| CC(C)n1nccc1C(=O)NC1CCN(Cc2cccc(F)c2)CC1 [CBK282596] | 84.5 | – |

| Compound | viability at 28.5 h, 10 µM [%] | viability at 28.5 h, 10 µM (bulk resorufin, single well) [%] |
| --- | --- | --- |
| Cc1ccccc1OCC(=O)Nc1c(C)n[nH]c1C [CBK266046C] | 106 | – |
| O=C(O)Cc1ccc(NC(=O)c2cccnc2C(=O)O)cc1 [CBK267397] | 97.2 | – |
| O=C1COc2ccccc2C/C=C/C[C@H]2CN(C(=O)c3noc4c3CCCC4)CC[C@H]2N1 [CBK292099] | 116 | – |
| O=C1CCCN1CCCNC(=O)N1CCN(CCc2ccccc2)CC1 [CBK158932] | 91 | – |
| CCCOc1ccc(S(=O)(=O)NCCN2CCOCC2)c2ccccc12 [CBK269045] | 99.1 | – |
| CC(C)n1c(=O)c2c(-c3cc(C(C)(C)C)no3)ncn2c2ccccc21 [CBK016666] | 86.6 | – |
| COc1cc(NC(=O)c2ccc3c(c2)C(=O)N(c2c(C)cc(C)cc2C)C3=O)c(C(=O)O)cc1OC [CBK264074] | 91.1 | – |
| O=C(O)C1CCC(CNS(=O)(=O)c2ccc(Br)cc2)CC1 (stereo not drawn) [CBK027994] | 86.1 | – |
| Nc1n[nH]c2nc(-c3ccccc3)c3c(c12)CCC3 [CBK288178] | 88.8 | – |
| COCCC(=O)N1C[C@@H](c2ccccc2F)[C@@]2(CCCC(=O)N2)C1 [CBK283360] | 90.4 | – |
| Cc1ccc(/C=N/NC(=O)CN(c2ccccc2)S(=O)(=O)c2ccccc2)c(C)c1C [CBK262098] | 89.6 | – |
| CCCCOc1ccc(Oc2ncc(C(F)(F)F)cc2Cl)cc1 [CBK161629] | 94.4 | – |
| CC(C)(C)CC(=O)N1C[C@@H]2C[C@H](C1)c1ccc(NS(=O)(=O)c3cccs3)c(=O)n1C2 [CBK288708] | 80.6 | – |
| O=C(NCC1Cc2ccccc2O1)c1ccc(Br)cc1Cl (stereo not drawn) [CBK298323] | 86.9 | – |
| O=C(O)CSc1nnc(-c2ccc(S(=O)(=O)N3CCCCCC3)cc2)o1 [CBK300508] | 81.9 | – |
| COc1ccccc1-c1ccc(CC2(C(=O)NCCc3ccccc3)CCOCC2)cc1 [CBK286516] | 102 | – |
| NC1=NC(=O)N([C@H]2C[C@@H](O)[C@@H](CO)O2)CN1 [CBK201248] | 108 | – |
| CCOc1ccc(NC(=O)C(C)Sc2nc3ccc(F)cc3[nH]2)cc1 (stereo not drawn) [CBK266047] | 107 | – |
| CCOC(=O)c1ccc(NC(=O)c2c(O)[nH]c(=O)[nH]c2=O)cc1 [CBK115565] | – | 84.7 |
| CCc1ccc(C(=O)C(C)OC(=O)c2nc3nc(C)cc(C)n3n2)cc1 (stereo not drawn) [CBK305023] | 87.7 | – |
| Nc1cccc2c1C(=O)N(c1ccccc1C(=O)O)C2=O [CBK287220] | 94 | – |
| Cc1nc2ccc(C(=O)N3CCN(c4ccccc4)CC3)cn2c1N(C)C(=O)c1cccs1 [CBK146544] | 99 | – |

| Compound | viability at 28.5 h, 10 µM [%] | viability at 28.5 h, 10 µM (bulk resorufin, single well) [%] |
| --- | --- | --- |
| COc1ccc(C)cc1C1(CNC(=O)N2CCC(C)(O)C2)CCOCC1 (stereo not drawn) [CBK305452] | 102 | – |
| CN(C)S(=O)(=O)NC1CC(C)(C)Cc2c1cnn2-c1ccc(F)cc1 (stereo not drawn) [CBK306646] | 112 | – |
| COc1ccc(OCc2nn(-c3nc4ccccc4s3)c(N)c2-c2ccccc2)cc1 [CBK266539] | 98.5 | – |
| CCCN1CCCC(NS(=O)(=O)c2cc(-n3cccn3)ccc2OC)C1 (stereo not drawn) [CBK307426] | 91.8 | – |
| O=C(c1ccc(-c2ccoc2)nc1)N1CCCC1 [CBK156284] | 84.6 | – |
| Cc1ccc(C(=O)NC(CC(C)C)c2nnc3n2CCNCC3)c(F)c1 (stereo not drawn) [CBK306817] | 85 | – |
| CCC(C)c1cc([N+](=O)[O-])cc([N+](=O)[O-])c1OC(=O)OC(C)C (stereo not drawn) [CBK260882] | 99.2 | – |
| Cc1nn(C)c(Sc2ccccc2)c1[N+](=O)[O-] [CBK002937] | 97.9 | – |
| Cc1csc(C2CN(Cc3cn(C)c(=O)n(C)c3=O)CCO2)n1 (stereo not drawn) [CBK305475] | 86.6 | – |
| Clc1ccc(CN2CCC(Oc3cncc(OCCN4CCOCC4)n3)C2)cc1Cl (stereo not drawn) [CBK084477] | 91.4 | – |
| Cc1noc(C2(O)CCN(CCc3ccc(F)c(F)c3)C2)n1 (stereo not drawn) [CBK304753] | 93.9 | – |
| CNC(=S)N1CCN(c2nccnc2NS(=O)(=O)C2CC2)CC1 [CBK048905] | 96.2 | – |
| O=C(NCCCn1cccc1)N1CCN(Cc2ccc(F)cc2)CC1 [CBK306994] | 107 | – |
| COc1cc(-c2cn3ccnc3c(N[C@@H]3CCN(Cc4ccccc4)C3)n2)cc(OC)c1OC [CBK037385] | 113 | – |
| Cc1ccc(S(=O)(=O)N(CC(=O)Nc2ccccc2-c2ccccc2)c2cccc(C)c2)cc1 [CBK265988] | 98 | – |
| SC1=NC2(CCCC2)NN1c1ccc(Cl)cc1 [CBK288391] | 83.2 | – |
| O=C(O)c1cccc(NS(=O)(=O)c2ccc3c(c2)OCCO3)c1 [CBK155697] | 96.9 | – |
| OC1CCN(c2ccc(-c3ccccc3)nn2)CC1 [CBK021753] | 83.9 | – |
| O=C(N[C@H]1C[C@H]2C(=O)Nc3ccc(-c4ccsc4)cc3C(=O)N2C1)c1ccccc1 [CBK289361] | 91 | – |
| O=C(Oc1cccc2cccnc12)c1cccc(S(=O)(=O)Oc2cccc3cccnc23)c1 [CBK264545] | 58.4 | – |
| C=CCn1c(Cc2csc(NC(=O)c3ccc(S(C)(=O)=O)cc3)n2)n[nH]c1=S [CBK295340] | 97 | – |
| CCN1C(=O)C2(CC(=O)N(CC(=O)OC)C2=O)c2cc(Cl)ccc21 (stereo not drawn) [CBK075234] | 93.7 | – |

| Compound | viability at 28.5 h, 10 µM [%] | viability at 28.5 h, 10 µM (bulk resorufin, single well) [%] |
| --- | --- | --- |
| CN(C)CCN1CCN(c2cc(Nc3ccc(N(C)C)cc3)nc3ccnn23)CC1 [CBK037211] | 93.4 | – |
| Cc1nn(C)c2ncc(S(=O)(=O)Nc3ccc(F)cn3)cc12 [CBK305175] | 95.1 | – |
| CN(C)CCN1CCN(c2nccnc2-c2cccc(CO)c2)CC1 [CBK037047] | 94.7 | – |
| CC(Sc1nc2cc(Cl)ccc2c(=O)n1CC1CCCO1)C(N)=O (stereo not drawn) [CBK305935] | 99.6 | – |
| CCCCN(CCCC)S(=O)(=O)c1nc2nc(C)cc(C)n2n1 [CBK022076] | 79.7 | – |
| Cc1cc2cc(C(F)(F)F)nc-2n(CC(=O)NC2CC2)c1 [CBK282888] | 106 | – |
| COCCNc1cc(-c2ccncc2)ncn1 [CBK037729] | 87.6 | – |
| CC(C)(C)OC(=O)NCc1ccc(-c2ccc(Nc3cccnc3)nc2)cc1 [CBK037804] | 95.3 | – |
| CN(CC(=O)O/N=C(\N)c1ccc(I)cc1)S(=O)(=O)c1cc(Cl)ccc1Cl [CBK268389] | 89.6 | – |
| c1cncc(CN2CCOC[C@H]2c2nc(-c3cccnc3)c[nH]2)c1 [CBK289323] | 86.3 | – |
| COc1ccc(Cc2nc(CC3CCCOC3)n(CC(F)(F)F)n2)cc1 (stereo not drawn) [CBK307140] | 112 | – |
| CCOC(=O)c1ccc(-n2sc3ccccc3c2=O)cc1 [CBK115552] | 99.1 | – |
| COc1ccc(-c2cnc(N)c(-c3ccc(C=O)cc3)n2)cn1 [CBK064096] | 90.8 | – |
| COc1cccc(CSC2=C(C#N)C(c3cccs3)C(C(=O)Nc3ccccc3)=C(C)N2)c1 (stereo not drawn) [CBK267458] | 83.2 | – |
| O=C(NCCc1ccc(F)cc1)C1CN(C(=O)c2ccc3nsnc3c2)C1 [CBK285690] | 95.8 | – |
| Cc1cc(C)c(NC(=O)CSc2nnc(-c3cccnc3)s2)c([N+](=O)[O-])c1 [CBK268929] | 102 | – |
| O=C1Nc2ccc(C(=O)NCC(O)CO)cc2/C1=C/c1c[nH]c2ncccc12 (stereo not drawn) [CBK115363C] | 95.3 | – |
| CS(=O)(=O)c1ccc(-c2cnc(N)c(NC3CCC(O)CC3)n2)cc1 (stereo not drawn) [CBK063865] | 110 | – |
| CC1CCCC(C)N1CC(O)COc1ccc(/N=C/c2ccccc2O)cc1 (stereo not drawn) [CBK261748] | 89.6 | – |
| CCC(c1ccc(F)cc1)n1cncc1-c1cnn(C)c1 (stereo not drawn) [CBK281883] | 95.7 | – |
| Cc1cc(N2CCN(C(=O)Cc3cccs3)CC2)nc(C(C)C)n1 [CBK305562] | 88.1 | – |
